Test results taken from patent publication US20240076285A1, “COMPOUNDS AND COMPOSITIONS FOR TREATING CONDITIONS ASSOCIATED WITH STING ACTIVITY” (IFM Due, Inc., priority 2020, published 2024).

Target: T1, hSTING (Homo sapiens, UniProt Q86WV6, G230A/H232R/R293Q/R71H)
T1 construct: host or cells: THP1-Dual KO-IFNAR2 cells
Experiment: STING reporter assay in THP1-Dual KO-IFNAR2 cells (2'3'cGAMP stimulation, luciferase reporter)
Assay type: cell-based
Conditions: 15 μM 2'3'cGAMP, 24 h, class symbols
Experimental: STING pathway activation by the compounds described herein was measured using THP1-Dual™ cells (KO-IFNAR2).
THP1-Dual™ KO-IFNAR2 Cells (obtained from invivogen) were maintained in RPMI, 10% FCS, 5 ml P/S, 2 mM L-glut, 10 mM Hepes, and 1 mM sodium pyruvate. Compounds were spotted in empty 384 well tissue culture plates (Greiner 781182) by Echo for a final concentration of 0.0017-100 μM. Cells were plated into the TC plates at 40 μL per well, 2×10E6 cells/mL. For activation with STING ligand, 2′3′cGAMP (MW 718.38, obtained from Invivogen), was prepared in Optimem media.
The following solutions were prepared for each 1×384 plate: • Solution A: 2 mL Optimem with one of the following stimuli: • 60 μL of 10 mM 2′3′cGAMP→150 μM stock • Solution B: 2 mL Optimem with 60 μL Lipofectamine 2000→Incubate 5 min at RT
2 mL of solution A and 2 ml Solution B was mixed and incubated for 20 min at room temperature (RT). 20 μL of transfection solution (A+B) was added on top of the plated cells, with a final 2′3′cGAMP concentration of 15 μM. The plates were then centrifuged immediately at 340 g for 1 minute, after which they were incubated at 37° C., 5% CO2, >98% humidity for 24 h. Luciferase reporter activity was then measured. EC50 values were calculated by using standard methods known in the art.
Luciferase reporter assay: 10 μL of supernatant from the assay was transferred to white 384-plate with flat bottom and squared wells. One pouch of QUANTI-Luc™ Plus was dissolved in 25 mL of water. 100 μL of QLC Stabilizer per 25 mL of QUANTI-Luc™ Plus solution was added. 50 μL of QUANTI-Luc™ Plus/QLC solution per well was then added. Luminescence was measured on a Platereader (e.g., Spectramax I3X (Molecular Devices GF3637001)).
Luciferase reporter activity was then measured. EC50 values were calculated by using standard methods known in the art.

T1 sequence (Q86WV6 whole entry R71H/G230A/H232R/R293Q): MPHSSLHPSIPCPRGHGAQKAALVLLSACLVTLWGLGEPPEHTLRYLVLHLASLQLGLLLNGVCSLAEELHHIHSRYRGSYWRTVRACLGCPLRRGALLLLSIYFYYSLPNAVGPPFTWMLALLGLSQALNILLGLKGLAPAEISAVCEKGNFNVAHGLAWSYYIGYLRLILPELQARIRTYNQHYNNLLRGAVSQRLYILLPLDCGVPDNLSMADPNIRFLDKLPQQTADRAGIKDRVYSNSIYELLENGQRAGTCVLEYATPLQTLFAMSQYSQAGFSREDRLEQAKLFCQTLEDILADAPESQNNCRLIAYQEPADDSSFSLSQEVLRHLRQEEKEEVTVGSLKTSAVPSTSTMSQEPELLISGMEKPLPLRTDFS

EC50	Structure (SMILES)
40 to 200 nM	N#Cc1cc(Nc2ccc(F)c(Cl)c2)cc(Nc2cc(Cl)c3cc[nH]c3c2)n1 [Compound 169, 6-[(4-chloro-1H-indol-6-yl)amino]-4-[(3-chloro-4-fluorophenyl)amino]pyridine-2-carbonitrile]
40 to 200 nM	N#Cc1cc(Nc2cc(F)cc(F)c2)cc(Nc2cc(Cl)c3cc[nH]c3c2)n1 [Compound 170, 6-[(4-chloro-1H-indol-6-yl)amino]-4-[(3,5-difluorophenyl)amino]pyridine-2-carbonitrile]
200 to 1000 nM	N#Cc1cc(Nc2cc(F)cc(Cl)c2)cc(Nc2cc(Cl)c3cc[nH]c3c2)n1 [Compound 171, 6-[(4-chloro-1H-indol-6-yl)amino]-4-[(3-chloro-5-fluorophenyl)amino]pyridine-2-carbonitrile]
200 to 1000 nM	Cc1nc2cc(Nc3cc(C#N)nc(Nc4cc(Cl)c5cc[nH]c5c4)c3)ccc2s1 [Compound 172, 6-[(4-chloro-1H-indol-6-yl)amino]-4-[(2-methyl-1,3-benzothiazol-5-yl)amino]pyridine-2-carbonitrile]
200 to 1000 nM	N#Cc1cc(Nc2ccc(C(F)(F)F)c(Cl)c2)cc(Nc2cc(Cl)c3cc[nH]c3c2)n1 [Compound 173, 6-[(4-chloro-1H-indol-6-yl)amino]-4-{[3-chloro-4-(trifluoromethyl)phenyl]amino}pyridine-2-carbonitrile]
200 to 1000 nM	CCc1ccc(Nc2cc(C#N)nc(Nc3cc(Cl)c4cc[nH]c4c3)c2)cn1 [Compound 174, 6-[(4-chloro-1H-indol-6-yl)amino]-4-[(6-ethylpyridin-3-yl)amino]pyridine-2-carbonitrile]
200 to 1000 nM	N#Cc1cc(Nc2cncc(Cl)c2)cc(Nc2cc(Cl)c3cc[nH]c3c2)n1 [Compound 175, 6-[(4-chloro-1H-indol-6-yl)amino]-4-[(5-chloropyridin-3-yl)amino]pyridine-2-carbonitrile]
200 to 1000 nM	Cc1nn(C)c2ccc(Nc3cc(C#N)nc(Nc4cc(Cl)c5cc[nH]c5c4)c3)cc12 [Compound 176, 6-[(4-chloro-1H-indol-6-yl)amino]-4-[(1,3-dimethyl-1H-indazol-5-yl)amino]pyridine-2-carbonitrile]
40 to 200 nM	N#Cc1cc(Nc2ccc3c(c2)OC(F)(F)O3)cc(Nc2cc(Cl)c3cc[nH]c3c2)n1 [Compound 177, 6-[(4-chloro-1H-indol-6-yl)amino]-4-[(2,2-difluoro-2H-1,3-benzodioxol-5-yl)amino]pyridine-2-carbonitrile]
200 to 1000 nM	CC1(C)C(=O)Nc2cc(Nc3cc(C#N)nc(Nc4cc(Cl)c5cc[nH]c5c4)c3)ccc21 [Compound 178, 6-[(4-chloro-1H-indol-6-yl)amino]-4-[(3,3-dimethyl-2-oxo-2,3-dihydro-1H-indol-6-yl)amino]pyridine-2-carbonitrile]
200 to 1000 nM	Cc1nc2ccc(Nc3cc(C#N)nc(Nc4cc(Cl)c5cc[nH]c5c4)c3)cc2s1 [Compound 179, 6-[(4-chloro-1H-indol-6-yl)amino]-4-[(2-methyl-1,3-benzothiazol-6-yl)amino]pyridine-2-carbonitrile]
1000 to 5000 nM	N#Cc1cc(Nc2ccc3c(c2)C(=O)NC3)cc(Nc2cc(Cl)c3cc[nH]c3c2)n1 [Compound 180, 6-[(4-chloro-1H-indol-6-yl)amino]-4-[(3-oxo-2,3-dihydro-1H-isoindol-5-yl)amino]pyridine-2-carbonitrile]
1000 to 5000 nM	N#Cc1cc(Nc2ccc3c(c2)CC(=O)N3)cc(Nc2cc(Cl)c3cc[nH]c3c2)n1 [Compound 181, 6-[(4-chloro-1H-indol-6-yl)amino]-4-[(2-oxo-2,3-dihydro-1H-indol-5-yl)amino]pyridine-2-carbonitrile]
40 to 200 nM	N#Cc1cc(Nc2ccc(OC(F)F)nc2)cc(Nc2cc(Cl)c3cc[nH]c3c2)n1 [Compound 182, 6-[(4-chloro-1H-indol-6-yl)amino]-4-{[6-(difluoromethoxy)pyridin-3-yl]amino}pyridine-2-carbonitrile]
200 to 1000 nM	N#Cc1cc(Nc2ccc(C(F)(F)F)nc2)cc(Nc2cc(Cl)c3cc[nH]c3c2)n1 [Compound 183, 6-[(4-chloro-1H-indol-6-yl)amino]-4-{[6-(trifluoromethyl)pyridin-3-yl]amino}pyridine-2-carbonitrile]
200 to 1000 nM	Cc1ccc(Nc2cc(C#N)nc(Nc3cc(Cl)c4cc[nH]c4c3)c2)cn1 [Compound 184, 6-[(4-chloro-1H-indol-6-yl)amino]-4-[(6-methylpyridin-3-yl)amino]pyridine-2-carbonitrile]
40 to 200 nM	COc1cc(Cl)cc(Nc2cc(C#N)nc(Nc3cc(Cl)c4cc[nH]c4c3)c2)c1 [Compound 185, 6-[(4-chloro-1H-indol-6-yl)amino]-4-[(3-chloro-5-methoxyphenyl)amino]pyridine-2-carbonitrile]
200 to 1000 nM	N#Cc1cc(Nc2cc(F)cc(C(F)(F)F)c2)cc(Nc2cc(Cl)c3cc[nH]c3c2)n1 [Compound 186, 6-[(4-chloro-1H-indol-6-yl)amino]-4-{[3-fluoro-5-(trifluoromethyl)phenyl]amino}pyridine-2-carbonitrile]
200 to 1000 nM	N#Cc1cc(Nc2cncc(C(F)(F)F)c2)cc(Nc2cc(Cl)c3cc[nH]c3c2)n1 [Compound 187, 6-[(4-chloro-1H-indol-6-yl)amino]-4-{[5-(trifluoromethyl)pyridin-3-yl]amino}pyridine-2-carbonitrile]
40 to 200 nM	N#Cc1cc(Nc2ccc3c(c2)CCC3)cc(Nc2cc(Cl)c3cc[nH]c3c2)n1 [Compound 188, 6-[(4-chloro-1H-indol-6-yl)amino]-4-[(2,3-dihydro-1H-inden-5-yl)amino]pyridine-2-carbonitrile]
40 to 200 nM	N#Cc1cc(Nc2ccc3c(c2)OC(F)(F)C(F)(F)O3)cc(Nc2cc(Cl)c3cc[nH]c3c2)n1 [Compound 189, 6-[(4-chloro-1H-indol-6-yl)amino]-4-[(2,2,3,3-tetrafluoro-2,3-dihydro-1,4-benzodioxin-6-yl)amino]pyridine-2-carbonitrile]
1000 to 5000 nM	CNC(=O)c1ccc(Nc2cc(C#N)nc(Nc3cc(Cl)c4cc[nH]c4c3)c2)cc1F [Compound 190, 4-({2-[(4-chloro-1H-indol-6-yl)amino]-6-cyanopyridin-4-yl}amino)-2-fluoro-N-methylbenzamide]
1000 to 5000 nM	N#Cc1cc(Nc2ccc3c(c2)OCCO3)cc(Nc2cc(Cl)c3cc[nH]c3c2)n1 [Compound 191, 6-[(4-chloro-1H-indol-6-yl)amino]-4-[(2,3-dihydro-1,4-benzodioxin-6-yl)amino]pyridine-2-carbonitrile]
